Reference: ChEMBL document CHEMBL5113512, “β-Nitrostyrene derivatives as broad range potential antifungal agents targeting fungal cell wall” (2022)
In brackets after ≈: the same amount, converted by molar mass. Activity calls are given as the source filed them. The calls are words filed in the database; no cut-off is given here.

Tests used:
Cell membrane [1] = assay: Disruption of membrane integrity in Candida auris CBS10913 assessed as cell surface perturbations measured after 3 hrs by SEM analysis; format: subcellular; details: Candidozyma auris
Candida albicans [2] = assay: Antifungal activity against Candida albicans ATCC 24433 overexpressing transporter protein F2 assessed as inhibition of fungal growth by broth microdilution method; format: functional
Candida albicans [3] = assay: Synergistic antifungal activity against Candida albicans ATCC 24433 overexpressing ADPDR5-G assessed as fractional inhibitory concentration index incubated for 48 hrs in presence of caspofungin by checker board assay; format: functional
Candida [4] = assay: Downregulation of PGA48 gene expression in Candida cells; format: functional, cell-based
Candida albicans [5] = assay: Antifungal activity against Candida albicans ATCC 24433 overexpressing transporter protein GU5 assessed as inhibition of fungal growth by broth microdilution method; format: functional
Candida albicans [6] = assay: Synergistic antifungal activity against Candida albicans SN152 harboring CAS5 mutant assessed as inhibition of fungal growth incubated for 48 hrs in presence of Amphotericin B by checker board assay; format: functional
Candida parapsilosis [7] = assay: Synergistic antifungal activity against Candida parapsilosis ATCC 90018 assessed as Congo red MIC incubated for 48 hrs by checker board assay; format: functional; details: Lodderomyces parapsilosis
Candida [8] = assay: Downregulation of CDC15 gene expression in Candida cells; format: functional, cell-based
Cell membrane [9] = assay: Disruption of membrane integrity in Candida albicans ATCC 24433 assessed as cell deformation measured after 30 mins by SEM analysis; format: subcellular
Candida [10] = assay: Downregulation of CMP1 gene expression in Candida cells; format: functional, cell-based
Candida [11] = assay: Downregulation of BMT4 gene expression in Candida cells; format: functional, cell-based
[Candida] auris [12] = Synergistic antifungal activity against Candida auris CBS10913 assessed as fractional inhibitory concentration index incubated for 48 hrs in presence of Congo red by checker board assay; format: functional, Candidozyma auris
Candida [13] = assay: Upregulation of ARG4 gene expression in Candida cells; format: functional, cell-based
Candida albicans [14] = assay: Fungicidal activity against Candida albicans ATCC 24433 assessed as reduction in fungal growth by measuring reduction in colony count at sub-MIC concentration measured after 48 hrs by time kill assay; format: functional, organism-based
[Candida] auris [15] = Synergistic antifungal activity against Candida auris CBS10913 assessed as fractional inhibitory concentration index incubated for 48 hrs in presence of Calcoflour White by checker board assay; format: functional, Candidozyma auris
Candida albicans [16] = assay: Antifungal activity against Candida albicans ATCC 24433 overexpressing transporter protein GU4 assessed as inhibition of fungal growth by broth microdilution method; format: functional
Candida albicans [17] = assay: Inhibition of drug efflux in Candida albicans ATCC 24433 overexpressing ADCaMDR1-GF assessed as […] in nile red efflux incubated for 30 mins by flow cytometry; format: functional
Candida albicans [18] = assay: Antifungal activity against Candida albicans ATCC 24433 overexpressing ADCDR1-GFP assessed as inhibition of fungal growth by broth microdilution method; format: functional
Candida parapsilosis [19] = assay: Synergistic antifungal activity against Candida parapsilosis ATCC 90018 assessed as SDS MIC incubated for 48 hrs by checker board assay; format: functional; details: Lodderomyces parapsilosis
[Candida] auris [20] = Synergistic antifungal activity against Candida auris CBS10913 assessed as inhibition of fungal growth incubated for 48 hrs in presence of Calcoflour White by checker board assay; format: functional; details: Candidozyma auris
Candida albicans [21] = assay: Synergistic antifungal activity against Candida albicans SN152 harboring CAS5 mutant assessed as fractional inhibitory concentration index incubated for 48 hrs in presence of fluconazole by checker board assay; format: functional
[Candida] auris [22] = Synergistic antifungal activity against Candida auris CBS10913 assessed as fractional inhibitory concentration index incubated for 48 hrs in presence of SDS by checker board assay; format: functional, Candidozyma auris
Candida albicans [23] = assay: Synergistic antifungal activity against Candida albicans SN152 harboring CAS5 mutant assessed as Caspofungin MIC incubated for 48 hrs by checker board assay; format: functional
Candida albicans [24] = assay: Synergistic antifungal activity against wild type Candida albicans SN152 assessed as Caspofungin MIC incubated for 48 hrs by checker board assay; format: functional
Candida [25] = assay: Downregulation of CAS5 gene expression in Candida cells; format: functional, cell-based
Candida parapsilosis [26] = assay: Synergistic antifungal activity against Candida parapsilosis ATCC 90018 assessed as inhibition of fungal growth incubated for 48 hrs in presence of Calcoflour White by checker board assay; format: functional; details: Lodderomyces parapsilosis
Candida [27] = assay: Upregulation of LSC2 gene expression in Candida cells; format: functional, cell-based
Candida [28] = assay: Upregulation of ARG1 gene expression in Candida cells; format: functional, cell-based
Candida parapsilosis [29] = assay: Synergistic antifungal activity against Candida parapsilosis ATCC 90018 assessed as fractional inhibitory concentration index incubated for 48 hrs in presence of SDS by checker board assay; format: functional
Candida albicans [30] = assay: Upregulation of CaPHO15 gene expression in Candida albicans ATCC 24433 assessed as increase in glycerol content at sub-inhibitory concentration incubated for 2 hrs; format: functional
Candida albicans [31] = assay: Synergistic antifungal activity against Candida albicans ATCC 24433 assessed as fractional inhibitory concentration index incubated for 48 hrs in presence of SDS by checker board assay; format: functional
Candida [32] = assay: Upregulation of ARG6 gene expression in Candida cells; format: functional, cell-based
Candida [33] = assay: Downregulation of PGA13 gene expression in Candida cells; format: functional, cell-based
Candida [34] = assay: Downregulation of GUT1 gene expression in Candida cells; format: functional, cell-based
Cell membrane [35] = assay: Disruption of membrane integrity in Candida auris CBS10913 assessed as cell shrinkage and lysis by measuring leakage of intracellular material measured after 6 hrs by SEM analysis; details: Candidozyma auris
[Candida] auris [36] = Synergistic antifungal activity against Candida auris CBS10913 assessed as Congo red MIC incubated for 48 hrs by checker board assay; format: functional; details: Candidozyma auris
Cell membrane [37] = assay: Disruption of membrane integrity in Candida albicans ATCC 24433 assessed as cell surface perturbations measured after 3 hrs by SEM analysis
Candida [38] = assay: Upregulation of CPA1 gene expression in Candida cells; format: functional, cell-based
Candida parapsilosis [39] = assay: Synergistic antifungal activity against Candida parapsilosis ATCC 90018 assessed as fractional inhibitory concentration index incubated for 48 hrs in presence of Congo red by checker board assay; format: functional
Candida albicans [40] = assay: Downregulation of CAS5 gene expression in Candida albicans ATCC 24433 by qRT-PCR analysis; format: functional
Candida [41] = assay: Downregulation of CDC4 gene expression in Candida cells; format: functional, cell-based
[Candida] auris [42] = Synergistic antifungal activity against Candida auris CBS10913 assessed as inhibition of fungal growth incubated for 48 hrs in presence of SDS by checker board assay; format: functional; details: Candidozyma auris
Candida [43] = assay: Downregulation of PGA10 gene expression in Candida cells; format: functional, cell-based
Candida albicans [44] = assay: Synergistic antifungal activity against wild type Candida albicans SN152 assessed as inhibition of fungal growth incubated for 48 hrs in presence of fluconazole by checker board assay; format: functional
Candida albicans [45] = assay: Synergistic antifungal activity against wild type Candida albicans SN152 assessed as fluconazole MIC incubated for 48 hrs by checker board assay; format: functional
Candida albicans [46] = assay: Synergistic antifungal activity against Candida albicans ATCC 24433 assessed as Calcoflour White MIC incubated for 48 hrs by checker board assay; format: functional
[Candida] auris [47] = Antifungal activity against Candida auris 105 assessed as inhibition of fungal growth by broth microdilution method; format: functional; details: Candidozyma auris
Candida [48] = assay: Downregulation of BMT5 gene expression in Candida cells; format: functional, cell-based
Candida albicans [49] = assay: Synergistic antifungal activity against Candida albicans ATCC 24433 assessed as fractional inhibitory concentration index incubated for 48 hrs in presence of Calcoflour White by checker board assay; format: functional

O=[N+]([O-])/C=C/c1ccc(O)cc1
Activity (Cell membrane [1]): Active
MIC80 (Candida albicans [2]): 2 µg/mL (≈ 12.1 µM)
fractional inhibitory concentration index (FICI) (Candida albicans [3]): <0.5
Activity (Candida [4]): Active
MIC80 (Candida albicans [5]): 4 µg/mL (≈ 24.2 µM)
MIC (Candida albicans [6]): 0.0312 µg/mL
MIC (Candida parapsilosis [7]): 6.25 µg/mL
Activity (Candida [8]): Active
Activity (Cell membrane [9]): Active
Activity (Candida [10]): Active
Activity (Candida [11]): Active
fractional inhibitory concentration index (FICI) ([Candida] auris [12]): 0.3125
Activity (Candida [13]): Active
Activity (Candida albicans [14]): Active
fractional inhibitory concentration index (FICI) ([Candida] auris [15]): 0.625
MIC80 (Candida albicans [16]): 4 µg/mL (≈ 24.2 µM)
inhibition (Candida albicans [17]): Active
MIC80 (Candida albicans [18]): 4 µg/mL (≈ 24.2 µM)
MIC (Candida parapsilosis [19]): 25 µg/mL
MIC ([Candida] auris [20]): 0.25 µg/mL
fractional inhibitory concentration index (FICI) (Candida albicans [21]): 0.126
fractional inhibitory concentration index (FICI) ([Candida] auris [22]): 0.5
MIC (Candida albicans [23]): 0.0078 µg/mL
MIC (Candida albicans [24]): 0.0312 µg/mL
Activity (Candida [25]): Active
MIC (Candida parapsilosis [26]): 0.0078 µg/mL
Activity (Candida [27]): Active
Activity (Candida [28]): Active
fractional inhibitory concentration index (FICI) (Candida parapsilosis [29]): 0.375
Activity (Candida albicans [30]): Active
fractional inhibitory concentration index (FICI) (Candida albicans [31]): 0.5
Activity (Candida [32]): Active
Activity (Candida [33]): Active
Activity (Candida [34]): Active
Activity (Cell membrane [35]): Active
MIC ([Candida] auris [36]): 100 µg/mL
Activity (Cell membrane [37]): Active
Activity (Candida [38]): Active
fractional inhibitory concentration index (FICI) (Candida parapsilosis [39]): 0.25
Activity (Candida albicans [40]): Active
Activity (Candida [41]): Active
MIC ([Candida] auris [42]): 0.5 µg/mL
Activity (Candida [43]): Active
MIC (Candida albicans [44]): 0.0039 µg/mL
MIC (Candida albicans [45]): 0.25 µg/mL
MIC (Candida albicans [46]): 12.5 µg/mL
MIC80 ([Candida] auris [47]): 2 µg/mL (≈ 12.1 µM)
Activity (Candida [48]): Active
fractional inhibitory concentration index (FICI) (Candida albicans [49]): 0.25
